Some results are limits rather than exact numbers.

T1 sequence (Q13639 whole entry): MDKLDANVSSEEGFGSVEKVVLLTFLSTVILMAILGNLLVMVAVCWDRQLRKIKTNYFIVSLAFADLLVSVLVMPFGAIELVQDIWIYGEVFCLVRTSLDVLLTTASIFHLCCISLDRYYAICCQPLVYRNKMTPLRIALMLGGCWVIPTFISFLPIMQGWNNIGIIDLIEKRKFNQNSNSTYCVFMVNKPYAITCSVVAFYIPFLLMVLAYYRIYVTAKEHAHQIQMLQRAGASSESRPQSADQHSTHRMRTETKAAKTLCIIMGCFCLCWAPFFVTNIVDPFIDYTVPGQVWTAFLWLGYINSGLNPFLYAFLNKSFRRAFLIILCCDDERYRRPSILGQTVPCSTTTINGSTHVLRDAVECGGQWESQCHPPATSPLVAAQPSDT
Chain of 5HT transporter (P31652 whole entry): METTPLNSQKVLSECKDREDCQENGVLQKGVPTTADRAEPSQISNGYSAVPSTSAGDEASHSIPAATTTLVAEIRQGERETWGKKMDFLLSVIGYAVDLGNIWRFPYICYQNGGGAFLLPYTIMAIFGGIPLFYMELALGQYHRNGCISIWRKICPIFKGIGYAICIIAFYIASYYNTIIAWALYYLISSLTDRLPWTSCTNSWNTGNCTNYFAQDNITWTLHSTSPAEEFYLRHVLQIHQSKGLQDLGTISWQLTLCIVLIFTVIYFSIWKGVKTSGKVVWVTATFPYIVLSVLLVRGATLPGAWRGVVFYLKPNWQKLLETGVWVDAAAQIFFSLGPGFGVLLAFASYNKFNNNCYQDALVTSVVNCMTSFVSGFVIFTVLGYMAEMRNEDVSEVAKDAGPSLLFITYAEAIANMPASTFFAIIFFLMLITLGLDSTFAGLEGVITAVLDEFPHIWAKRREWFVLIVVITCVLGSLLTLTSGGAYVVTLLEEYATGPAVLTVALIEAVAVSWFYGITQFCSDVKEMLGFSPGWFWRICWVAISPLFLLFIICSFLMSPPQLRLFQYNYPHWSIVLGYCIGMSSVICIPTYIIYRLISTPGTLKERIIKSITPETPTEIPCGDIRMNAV
T8 sequence (P21728 whole entry): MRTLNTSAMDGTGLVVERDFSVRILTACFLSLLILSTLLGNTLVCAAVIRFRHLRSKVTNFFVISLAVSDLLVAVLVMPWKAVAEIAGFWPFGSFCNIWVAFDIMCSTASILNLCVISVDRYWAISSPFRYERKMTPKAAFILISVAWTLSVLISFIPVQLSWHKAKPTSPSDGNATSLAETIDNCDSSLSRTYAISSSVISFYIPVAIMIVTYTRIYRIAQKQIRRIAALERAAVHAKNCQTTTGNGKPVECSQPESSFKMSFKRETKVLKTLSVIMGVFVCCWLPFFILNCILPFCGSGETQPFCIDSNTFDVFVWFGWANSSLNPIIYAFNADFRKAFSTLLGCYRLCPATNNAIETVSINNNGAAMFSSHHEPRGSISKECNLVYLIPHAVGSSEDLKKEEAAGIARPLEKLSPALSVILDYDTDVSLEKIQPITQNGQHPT
T2 sequence (P21918 whole entry): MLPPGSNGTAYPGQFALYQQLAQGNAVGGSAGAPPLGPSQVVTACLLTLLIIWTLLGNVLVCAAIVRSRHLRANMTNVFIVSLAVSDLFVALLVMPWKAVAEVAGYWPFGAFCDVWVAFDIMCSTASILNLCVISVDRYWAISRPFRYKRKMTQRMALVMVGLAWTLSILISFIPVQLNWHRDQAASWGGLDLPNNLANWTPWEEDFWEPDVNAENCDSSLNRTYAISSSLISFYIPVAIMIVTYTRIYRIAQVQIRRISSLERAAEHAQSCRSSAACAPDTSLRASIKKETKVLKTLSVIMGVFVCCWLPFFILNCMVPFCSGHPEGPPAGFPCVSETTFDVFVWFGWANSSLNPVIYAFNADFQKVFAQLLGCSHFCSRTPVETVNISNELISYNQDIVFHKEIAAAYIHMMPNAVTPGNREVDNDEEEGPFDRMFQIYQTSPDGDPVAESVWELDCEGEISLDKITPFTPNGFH
T7 sequence (P50406 whole entry): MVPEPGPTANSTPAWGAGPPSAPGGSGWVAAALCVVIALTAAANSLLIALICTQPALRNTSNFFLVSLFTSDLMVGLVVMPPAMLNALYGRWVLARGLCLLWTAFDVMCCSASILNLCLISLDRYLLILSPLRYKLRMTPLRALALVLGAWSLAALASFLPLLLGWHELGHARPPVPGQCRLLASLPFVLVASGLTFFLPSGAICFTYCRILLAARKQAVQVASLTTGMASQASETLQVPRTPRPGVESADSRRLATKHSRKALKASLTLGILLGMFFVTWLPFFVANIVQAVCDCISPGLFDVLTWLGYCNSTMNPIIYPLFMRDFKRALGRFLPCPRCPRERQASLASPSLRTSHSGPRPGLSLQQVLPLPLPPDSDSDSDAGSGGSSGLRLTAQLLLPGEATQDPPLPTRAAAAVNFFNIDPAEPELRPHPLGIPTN

The first test concerns the target T1, human 5HT4 receptor (Homo sapiens, UniProt Q13639).
T1 construct: expressed in transfected cells
Nature of the test: Radioligand binding, 5-HT4 receptor. Conditions: Table 7; read-out: h5HT4 Ki. On the procedure:
(§1) Other 5-HT Receptors: Other serotonin receptor binding assays were performed according to published methods: rat 5HT2C receptor (Julius et al., 1988); and 5-HT6 (Monsma, et al., 1993). The binding assays using the 5-HT4 receptor were performed according to the procedures described in U.S. Patent No. 5,766,879, the disclosure of which is hereby incorporated by reference in its entirety into this application.
(§2) Binding data were analyzed using nonlinear regression and statistical techniques available in the GraphPAD Prism package (San Diego, CA). Enzymatic assay data were derived from a standard curve of reference compound data.
On to `O=C1C(=Nc2ccc(Br)cc2)c2ccccc2N1c1ccccc1` [Example 98, 3-[(4-BROMOPHENYL)IMINO]-1-PHENYL-1,3-DIHYDRO-2H-INDOL-2-ONE], for which the Ki was found to be 1.21 µM.

Still in this test, the particulars now being: Table 8; Ki h5HT4 divided by Ki hGAL3.
Take `O=C1C(=Nc2ccc(Br)cc2)c2ccccc2N1c1ccccc1` [Example 98, 3-[(4-BROMOPHENYL)IMINO]-1-PHENYL-1,3-DIHYDRO-2H-INDOL-2-ONE]: the “selectivity ratio h5HT4” value was above 30.

The next test concerns the target T2, dopamine D5 receptor (Homo sapiens, UniProt P21918).
T2 construct: expressed in transfected cells
Nature of the test: Radioligand binding, dopamine D5 receptor. Conditions: Table 9; read-out: hD5 Ki.
Description: (§3) Other receptors: Cell membranes expressing human dopamine D1, D2, D4 and rat D3 receptors were purchased through BioSignal, Inc. (Montreal, Canada). Binding assays using the histamine H1 receptor; dopamine receptors; and α1A, α1E, and α2 adrenergic receptors may be carried out according to the procedures described in U.S. Patent No. 5,780,485, the disclosure of which is hereby incorporated by reference in its entirety into this application. Binding assays using the dopamine D5 receptor may be carried out according to the procedures described in U.S. Patent No. 5,882,855, the disclosure of which is hereby incorporated by reference in its entirety into this application. Binding assays for the human α1D adrenergic receptor may be carried out according to the procedures described in U.S. Patent No. 6,156,518, the disclosure of which is hereby incorporated by reference in its entirety into this application.
as §2
In the case of `O=C1C(=Nc2ccc(Br)cc2)c2ccccc2N1c1ccccc1` [Example 98, 3-[(4-BROMOPHENYL)IMINO]-1-PHENYL-1,3-DIHYDRO-2H-INDOL-2-ONE], the Ki is 1.2 µM.

Still in this test, the particulars now being: Table 10; Ki hD5 divided by Ki hGAL3.
As to `O=C1C(=Nc2ccc(Br)cc2)c2ccccc2N1c1ccccc1` [Example 98, 3-[(4-BROMOPHENYL)IMINO]-1-PHENYL-1,3-DIHYDRO-2H-INDOL-2-ONE], the “selectivity ratio hD5” value is above 30.

For the next test, the target named is T3, human α1B adrenoceptor (Homo sapiens, UniProt P35368).
T3 construct: expressed in transfected cells
T3 sequence (P35368 1-520): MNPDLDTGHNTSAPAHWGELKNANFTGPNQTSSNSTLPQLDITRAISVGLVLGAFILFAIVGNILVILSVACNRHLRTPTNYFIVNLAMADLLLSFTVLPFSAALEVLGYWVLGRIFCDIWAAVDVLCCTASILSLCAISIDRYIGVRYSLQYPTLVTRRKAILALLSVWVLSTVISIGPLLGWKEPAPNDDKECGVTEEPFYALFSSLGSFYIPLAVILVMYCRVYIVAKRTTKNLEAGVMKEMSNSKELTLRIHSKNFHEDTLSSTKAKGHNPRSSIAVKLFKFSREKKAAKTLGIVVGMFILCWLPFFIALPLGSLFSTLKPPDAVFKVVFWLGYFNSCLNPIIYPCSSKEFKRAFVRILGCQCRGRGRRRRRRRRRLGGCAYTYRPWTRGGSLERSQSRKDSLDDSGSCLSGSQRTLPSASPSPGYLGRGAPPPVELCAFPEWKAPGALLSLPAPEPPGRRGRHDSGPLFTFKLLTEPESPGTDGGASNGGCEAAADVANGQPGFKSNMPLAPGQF
Briefly: Radioligand binding, α1B adrenergic receptor. Conditions: Table 9; read-out: hα1B Ki.
For the compound `O=C1C(=Nc2ccc(Br)cc2)c2ccccc2N1c1ccccc1` [Example 98, 3-[(4-BROMOPHENYL)IMINO]-1-PHENYL-1,3-DIHYDRO-2H-INDOL-2-ONE], the Ki came to 31.7 µM.

Staying with this test, now noted: Table 10; Ki hα1B divided by Ki hGAL3.
Regarding `O=C1C(=Nc2ccc(Br)cc2)c2ccccc2N1c1ccccc1` [Example 98, 3-[(4-BROMOPHENYL)IMINO]-1-PHENYL-1,3-DIHYDRO-2H-INDOL-2-ONE], the “selectivity ratio hα1B” value was above 100.

The target in another test is T4, human 5HT1D (Homo sapiens, UniProt P28221).
T4 construct: expressed in transfected cells
T4 sequence (P28221 whole entry): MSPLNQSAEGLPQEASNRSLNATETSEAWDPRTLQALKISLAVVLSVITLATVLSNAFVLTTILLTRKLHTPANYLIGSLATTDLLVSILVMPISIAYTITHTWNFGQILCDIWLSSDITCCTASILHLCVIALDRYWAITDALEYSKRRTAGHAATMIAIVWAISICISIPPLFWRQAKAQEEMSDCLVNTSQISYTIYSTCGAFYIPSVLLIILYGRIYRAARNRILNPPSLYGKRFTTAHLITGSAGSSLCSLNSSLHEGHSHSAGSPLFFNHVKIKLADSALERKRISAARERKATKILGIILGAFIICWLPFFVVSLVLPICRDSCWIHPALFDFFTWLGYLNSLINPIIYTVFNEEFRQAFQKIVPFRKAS
Briefly: Radioligand binding, 5HT1D receptor ([3H]-serotonin). The following applies: Table 7; read-out: h5HT1D Ki. On the procedure: (§4) Human 5HT1B, 5HT1D, 5HT1E, 5HT1F, and 5HT7 Receptors: The cell lysates of LM(tk-) clonal cell line stably transfected with the genes encoding each of these 5HT receptor-subtypes were prepared as described above. Cell membranes were suspended in 50mM Tris-HCl buffer (pH 7.4 at 37°C) containing 10 mM MgCl2, 0.2 mM EDTA, 10 µM pargyline, and 0.1% ascorbate. […] Nonspecific binding was determined in the presence of 10 µM serotonin. The bound radioligand was separated by filtration through GF/B filters using a cell harvester.
as §2
As to `O=C1C(=Nc2ccc(Br)cc2)c2ccccc2N1c1ccccc1` [Example 98, 3-[(4-BROMOPHENYL)IMINO]-1-PHENYL-1,3-DIHYDRO-2H-INDOL-2-ONE], the Ki turned out to be 9.12 µM.

Staying with this test, now noted: Table 8; Ki h5HT1D divided by Ki hGAL3.
Take `O=C1C(=Nc2ccc(Br)cc2)c2ccccc2N1c1ccccc1` [Example 98, 3-[(4-BROMOPHENYL)IMINO]-1-PHENYL-1,3-DIHYDRO-2H-INDOL-2-ONE]: the “selectivity ratio h5HT1D” value was above 100.

In the next test the target is T5, human 5HT1E (Homo sapiens, UniProt P28566).
T5 construct: expressed in transfected cells
T5 sequence (P28566 whole entry): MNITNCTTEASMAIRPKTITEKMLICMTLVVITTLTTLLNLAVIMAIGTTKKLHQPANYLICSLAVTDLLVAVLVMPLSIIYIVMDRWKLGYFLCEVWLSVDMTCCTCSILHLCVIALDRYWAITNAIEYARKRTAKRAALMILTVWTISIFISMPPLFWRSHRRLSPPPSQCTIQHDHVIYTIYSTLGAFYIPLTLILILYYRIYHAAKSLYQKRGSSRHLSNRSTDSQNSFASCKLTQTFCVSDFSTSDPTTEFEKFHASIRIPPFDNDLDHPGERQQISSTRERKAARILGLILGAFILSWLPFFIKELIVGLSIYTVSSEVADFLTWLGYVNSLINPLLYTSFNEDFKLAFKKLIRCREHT
Nature of the test: Radioligand binding, 5HT1E receptor ([3H]-serotonin). The following applies: Table 7; read-out: h5HT1E Ki. The protocol: as §4, §2
For the compound `O=C1C(=Nc2ccc(Br)cc2)c2ccccc2N1c1ccccc1` [Example 98, 3-[(4-BROMOPHENYL)IMINO]-1-PHENYL-1,3-DIHYDRO-2H-INDOL-2-ONE], the Ki turned out to be 16.2 µM.

The test is the same for the next values; noted with them: Table 8; Ki h5HT1E divided by Ki hGAL3.
As for `O=C1C(=Nc2ccc(Br)cc2)c2ccccc2N1c1ccccc1` [Example 98, 3-[(4-BROMOPHENYL)IMINO]-1-PHENYL-1,3-DIHYDRO-2H-INDOL-2-ONE], the “selectivity ratio h5HT1E” value is listed as above 100.

A further test concerns the target T6, human α2B adrenoceptor (Homo sapiens, UniProt P18089).
T6 construct: expressed in transfected cells
T6 sequence (P18089 1-450): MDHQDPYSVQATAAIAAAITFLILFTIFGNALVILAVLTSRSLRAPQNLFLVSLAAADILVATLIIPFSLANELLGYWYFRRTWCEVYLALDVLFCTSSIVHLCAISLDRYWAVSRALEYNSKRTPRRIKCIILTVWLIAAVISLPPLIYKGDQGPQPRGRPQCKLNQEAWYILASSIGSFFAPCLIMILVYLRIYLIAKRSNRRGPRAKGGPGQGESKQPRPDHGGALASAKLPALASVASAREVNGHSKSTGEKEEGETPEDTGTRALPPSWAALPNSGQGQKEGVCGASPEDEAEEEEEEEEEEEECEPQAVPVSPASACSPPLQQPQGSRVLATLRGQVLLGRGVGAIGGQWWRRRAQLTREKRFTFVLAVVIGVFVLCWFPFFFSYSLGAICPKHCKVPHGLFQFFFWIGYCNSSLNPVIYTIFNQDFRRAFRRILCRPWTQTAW
Briefly: Radioligand binding, α2B adrenergic receptor. Conditions: Table 9; read-out: hα2B Ki.
Description: as §3, §2
Regarding `O=C1C(=Nc2ccc(Br)cc2)c2ccccc2N1c1ccccc1` [Example 98, 3-[(4-BROMOPHENYL)IMINO]-1-PHENYL-1,3-DIHYDRO-2H-INDOL-2-ONE], the Ki is above 50 µM.

Staying with this test, now noted: Table 10; Ki hα2B divided by Ki hGAL3.
As for `O=C1C(=Nc2ccc(Br)cc2)c2ccccc2N1c1ccccc1` [Example 98, 3-[(4-BROMOPHENYL)IMINO]-1-PHENYL-1,3-DIHYDRO-2H-INDOL-2-ONE], the “selectivity ratio hα2B” value was above 100.

The next test has as its target T7, human 5HT6 (Homo sapiens, UniProt P50406).
T7 construct: expressed in transfected cells
Nature of the test: Radioligand binding, 5-HT6 receptor. Conditions: Table 7; read-out: h5HT6 Ki. The protocol:
as §1, §2
On to `O=C1C(=Nc2ccc(Br)cc2)c2ccccc2N1c1ccccc1` [Example 98, 3-[(4-BROMOPHENYL)IMINO]-1-PHENYL-1,3-DIHYDRO-2H-INDOL-2-ONE], for which the Ki was 14 µM.

The same test, now with this note: Table 8; Ki h5HT6 divided by Ki hGAL3.
Regarding `O=C1C(=Nc2ccc(Br)cc2)c2ccccc2N1c1ccccc1` [Example 98, 3-[(4-BROMOPHENYL)IMINO]-1-PHENYL-1,3-DIHYDRO-2H-INDOL-2-ONE], the “selectivity ratio h5HT6” value is recorded as above 100.

For a further test, the target named is DA transporter (Rattus norvegicus, UniProt P23977). Nature of the test: Binding at native DA transporter. Conditions: Table 7; native transporter, head prints r (rat); read-out: rDA Uptk Ki. The protocol: (§5) The binding properties of the compounds of the present invention were evaluated at one or more cloned receptors or native, tissue-derived transporters, using protocols described below.
Chain of DA transporter (P23977 whole entry): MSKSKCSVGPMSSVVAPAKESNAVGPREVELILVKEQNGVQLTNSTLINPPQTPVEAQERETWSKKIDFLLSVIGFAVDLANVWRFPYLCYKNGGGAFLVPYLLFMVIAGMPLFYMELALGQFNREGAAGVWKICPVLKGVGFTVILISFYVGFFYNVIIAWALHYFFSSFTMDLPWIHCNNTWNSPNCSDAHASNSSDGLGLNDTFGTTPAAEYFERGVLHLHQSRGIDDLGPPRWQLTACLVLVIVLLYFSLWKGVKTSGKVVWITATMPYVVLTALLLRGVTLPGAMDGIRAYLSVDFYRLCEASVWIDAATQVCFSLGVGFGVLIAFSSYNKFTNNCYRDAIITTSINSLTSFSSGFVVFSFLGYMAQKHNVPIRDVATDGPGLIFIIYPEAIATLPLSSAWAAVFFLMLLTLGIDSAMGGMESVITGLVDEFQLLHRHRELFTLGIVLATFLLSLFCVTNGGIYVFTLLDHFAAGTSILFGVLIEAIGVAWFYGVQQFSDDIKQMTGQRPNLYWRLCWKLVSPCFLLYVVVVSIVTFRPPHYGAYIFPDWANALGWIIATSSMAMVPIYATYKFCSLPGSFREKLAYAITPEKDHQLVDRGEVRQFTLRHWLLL
(§6) The methods to determine binding affinity at native transporters are described in the following publications: 5HT transporter and NE transporter (Owens et al., 1997), and DA transporter (Javitch et al, 1984).
as §2
Turning to `O=C1C(=Nc2ccc(Br)cc2)c2ccccc2N1c1ccccc1` [Example 98, 3-[(4-BROMOPHENYL)IMINO]-1-PHENYL-1,3-DIHYDRO-2H-INDOL-2-ONE], the Ki came to 7.43 µM.

Still in this test, the particulars now being: Table 8; Ki rDA Uptk divided by Ki hGAL3.
On to `O=C1C(=Nc2ccc(Br)cc2)c2ccccc2N1c1ccccc1` [Example 98, 3-[(4-BROMOPHENYL)IMINO]-1-PHENYL-1,3-DIHYDRO-2H-INDOL-2-ONE], for which the “selectivity ratio rDA Uptk” value is listed as above 100.

A further test concerns the target T8, human dopamine D1 (Homo sapiens, UniProt P21728).
T8 construct: purchased BioSignal, Inc. (Montreal, Canada); host or cells: membranes of cells expressing the receptor
Nature of the test: Radioligand binding, dopamine D1 receptor. The following applies: Table 9; read-out: hD1 Ki.
Description: as §3, §2
As for `O=C1C(=Nc2ccc(Br)cc2)c2ccccc2N1c1ccccc1` [Example 98, 3-[(4-BROMOPHENYL)IMINO]-1-PHENYL-1,3-DIHYDRO-2H-INDOL-2-ONE], the Ki was 2.52 µM.

Staying with this test, now noted: Table 10; Ki hD1 divided by Ki hGAL3.
`O=C1C(=Nc2ccc(Br)cc2)c2ccccc2N1c1ccccc1` [Example 98, 3-[(4-BROMOPHENYL)IMINO]-1-PHENYL-1,3-DIHYDRO-2H-INDOL-2-ONE]: the “selectivity ratio hD1” value is above 30.

The next test has as its target 5HT transporter (Rattus norvegicus, UniProt P31652). Briefly: Binding at native 5HT transporter. The following applies: Table 7; native transporter, head prints r (rat); read-out: r5HT Uptk Ki. On the procedure: as §5, §6, §2
For the compound `O=C1C(=Nc2ccc(Br)cc2)c2ccccc2N1c1ccccc1` [Example 98, 3-[(4-BROMOPHENYL)IMINO]-1-PHENYL-1,3-DIHYDRO-2H-INDOL-2-ONE], the Ki came to 36.3 µM.

Staying with this test, now noted: Table 8; Ki r5HT Uptk divided by Ki hGAL3.
Regarding `O=C1C(=Nc2ccc(Br)cc2)c2ccccc2N1c1ccccc1` [Example 98, 3-[(4-BROMOPHENYL)IMINO]-1-PHENYL-1,3-DIHYDRO-2H-INDOL-2-ONE], the “selectivity ratio r5HT Uptk” value is above 100.

In another test the target is T9, human 5HT7 (Homo sapiens, UniProt P34969).
T9 construct: expressed in transfected cells
T9 sequence (P34969 1-445 isoform P34969-2): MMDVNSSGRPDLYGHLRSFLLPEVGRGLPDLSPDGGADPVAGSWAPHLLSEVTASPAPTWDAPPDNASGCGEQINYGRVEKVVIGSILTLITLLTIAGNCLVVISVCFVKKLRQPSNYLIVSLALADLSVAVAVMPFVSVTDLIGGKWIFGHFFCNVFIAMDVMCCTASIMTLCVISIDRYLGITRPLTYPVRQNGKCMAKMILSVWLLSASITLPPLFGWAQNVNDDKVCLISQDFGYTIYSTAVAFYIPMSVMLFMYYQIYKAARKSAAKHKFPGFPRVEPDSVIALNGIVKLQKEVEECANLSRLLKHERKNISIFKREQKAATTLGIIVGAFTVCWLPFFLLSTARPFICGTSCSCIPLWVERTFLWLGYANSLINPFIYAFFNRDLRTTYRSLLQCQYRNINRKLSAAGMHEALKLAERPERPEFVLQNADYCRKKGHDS
Briefly: Radioligand binding, 5HT7 receptor ([3H]-serotonin). The following applies: Table 7; read-out: h5HT7 Ki. On the procedure:
as §4, §2
For the compound `O=C1C(=Nc2ccc(Br)cc2)c2ccccc2N1c1ccccc1` [Example 98, 3-[(4-BROMOPHENYL)IMINO]-1-PHENYL-1,3-DIHYDRO-2H-INDOL-2-ONE], the Ki stood at 8.46 µM.

Still in this test, the particulars now being: Table 8; Ki h5HT7 divided by Ki hGAL3.
`O=C1C(=Nc2ccc(Br)cc2)c2ccccc2N1c1ccccc1` [Example 98, 3-[(4-BROMOPHENYL)IMINO]-1-PHENYL-1,3-DIHYDRO-2H-INDOL-2-ONE]: the “selectivity ratio h5HT7” value was above 100.

(Values after patent EP2140864A2 (H. Lundbeck A/S, priority 2001, dated 2002).)
